Measurements taken from PMC8569227 (Frontiers in Plant Science, 2021).
pIC50: −log10 of the molar value. Values joined by “and” are separate entries in the source; they are usually repeats but may differ in a detail not shown here. Identical values can stand only once. Like-named read-outs stand apart in the source and are kept apart here.

Experiments:
[1] = molecular target: T1, recombinant Trypanosoma brucei AOX (rTAO) (Trypanosoma brucei brucei, UniProt Q26710); experiment: biochemical; details: rTAO IC50, membrane-bound protein, 300 μM NADH, MOPS buffer pH 7.5
[2] = molecular target: T2, Arabidopsis thaliana AOX1A (rAtAOX1A) (Arabidopsis thaliana, UniProt Q39219); experiment: biochemical; details: rAtAOX1A IC50, membrane-bound protein, 300 μM NADH, MOPS buffer pH 7.5
[3] = molecular target: T2, Arabidopsis thaliana AOX1A (rAtAOX1A); type: biochemical; details: for Fold change of oxygen consumption rate of rAtAOX1A vs control / Effect on oxygen consumption rate of rAtAOX1A (in words): 10 mM effector, membrane-bound protein, 1 mM NADH; for Fold change of oxygen consumption rate of rAtAOX1A vs control: 1 mM KCN (Figure 5C); for Effect on oxygen consumption rate of rAtAOX1A (in words): 1 mM KCN (Figure 5)
[4] = molecular target: T1, recombinant Trypanosoma brucei AOX (rTAO); type: biochemical
[5] = molecular target: T1, recombinant Trypanosoma brucei AOX (rTAO); experiment: Quinol kinetics of purified rTAO, Q1H2 oxidation at 278 nm; type: biochemical; details: MOPS pH 7.5
Description: (§1) Kinetic analysis of the purified rTAO and rAtAOX1A was performed spectrophotometrically using a Cary 4000 UV spectrophotometer (Varian, UK Ltd, Surrey UK) with the packaged software. All assays were performed in 65 mM MOPS buffer pH 7.5 with different concentrations of quinol-1 as the substrate, measuring the conversion of Q1H2 (ubiquinol-1) to Q1 (ubiquinone-1) at 278 nm (ε = 15,000 M^−1 cm^−1). Q1 was reduced to Q1H2 prior to experimentation via sonication with zinc powder under an inert atmosphere for ~10 min, with the resultant zinc then being removed via centrifugation at 2,000 g.

[6] = molecular target: T2, Arabidopsis thaliana AOX1A (rAtAOX1A); type: biochemical
Description: as §1

T1 sequence (Q26710 25-329): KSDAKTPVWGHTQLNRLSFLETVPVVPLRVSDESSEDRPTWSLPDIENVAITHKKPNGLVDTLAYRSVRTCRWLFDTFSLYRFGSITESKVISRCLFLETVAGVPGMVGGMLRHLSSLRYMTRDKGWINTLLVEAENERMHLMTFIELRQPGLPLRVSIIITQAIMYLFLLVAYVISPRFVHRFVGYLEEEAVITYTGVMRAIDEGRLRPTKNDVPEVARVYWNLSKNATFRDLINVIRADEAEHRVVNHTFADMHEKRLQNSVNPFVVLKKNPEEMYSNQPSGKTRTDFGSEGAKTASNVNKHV
T2 sequence (Q39219 63-354): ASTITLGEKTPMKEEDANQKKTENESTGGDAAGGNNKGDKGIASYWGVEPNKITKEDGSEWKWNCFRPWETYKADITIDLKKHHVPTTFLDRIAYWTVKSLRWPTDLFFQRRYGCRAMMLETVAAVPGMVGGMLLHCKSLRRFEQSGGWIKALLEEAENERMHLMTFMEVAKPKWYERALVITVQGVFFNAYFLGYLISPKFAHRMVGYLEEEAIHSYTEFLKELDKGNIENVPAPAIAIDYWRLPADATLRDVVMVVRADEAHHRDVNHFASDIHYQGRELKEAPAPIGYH

## CC(/C=C/[C@@]1(C)[C@H](C)CCC(=O)[C@@H]1C)=C\Cc1c(O)c(Cl)c(C)c(C=O)c1O [AC, ascochlorin]
[1]
  pIC50: 8.42 and 8.43
[2]
  pIC50: 7.83

## Nc1ncnc2c1ncn2[C@@H]1O[C@H](COP(=O)(O)OP(=O)(O)O)[C@@H](O)[C@H]1O [ADP, adenosine diphosphate]
[3]
  Fold change of oxygen consumption rate of rAtAOX1A vs control: 1.4 fold

## C/C(=C\Cc1c(O)c(Cl)c(C)c(C=O)c1O)CC/C=C(\C)[C@@H]1CC(=O)C(C)(C)O1 [AF, ascofuranone]
[2]
  pIC50: 8.21

## CC(C)=CCC/C(C)=C/Cc1c(O)c(Cl)c(C)c(C=O)c1O [CB, colletochlorin B]
[2]
  pIC50: 8.55

## CC(C)=CCc1c(O)c(Cl)c(C)c(C=O)c1O [CD, colletochlorin D]
[1]
  pIC50: 8.43 and 8.42
[2]
  pIC50: 8.24

## Nc1nc2c(ncn2[C@@H]2O[C@H](COP(=O)(O)OP(=O)(O)O)[C@@H](O)[C@H]2O)c(=O)[nH]1 [GDP]
[3]
  Fold change of oxygen consumption rate of rAtAOX1A vs control: 1.4 fold

## O=O [O2, oxygen]
[4]; membrane samples, 25°C, 1.25 mM NADH, without pyruvate, read-out: Km for O2, rTAO
  Km: 1.15 µM
[3]; membrane samples, 25°C, 1.25 mM NADH, without pyruvate, read-out: Km for O2, rAtAOX1A
  Km: 2.41 µM

## CCCCCCCCOC(=O)c1cc(O)c(O)c(O)c1 [OG, octylgallate]
[1]
  pIC50: 6.38
[2]
  pIC50: 5.80

## COc1c(O)c(C)c(CC=C(C)C)c(O)c1OC [Q1H2, ubiquinol-1]
[5]
  Km: 451 µM
[6]; purified rAtAOX1A, without pyruvate, MOPS pH 7.5, read-out: Km for Q1H2, rAtAOX1A
  Km: 26 µM

## O=C(NO)c1ccccc1O [SHAM, salicylic hydroxamic acid]
[2]
  pIC50: 4.48

## CC(=O)O [acetic acid]
[3]
  Effect on oxygen consumption rate of rAtAOX1A (in words): no stimulation

## O=CC(=O)O [glyoxylate]
[3]
  Fold change of oxygen consumption rate of rAtAOX1A vs control: more than 7 fold

## O=C(O)CC(=O)C(=O)O [oxaloacetate]
[3]
  Effect on oxygen consumption rate of rAtAOX1A (in words): dramatically promoted

## CCC(=O)O [propanoic acid]
[3]
  Effect on oxygen consumption rate of rAtAOX1A (in words): no stimulation

## CC(=O)C(=O)O [pyruvate]
[4]; 10 mM effector, membrane-bound protein
  Activation of oxygen consumption rate of rTAO (in words): but not that of rTAO
[6]; 10 mM pyruvate during purification and in the assay, purified protein
  Change of Km for Q1H2 of rAtAOX1A: remained unchanged
[6]; 10 mM pyruvate during purification and in the assay, purified protein, Q1H2 substrate
  Change of Vmax of rAtAOX1A: increased approximately five times
[3]
  Fold change of oxygen consumption rate of rAtAOX1A vs control: more than 7 fold
[3]; 10 mM pyruvate, membrane samples, 1.25 mM NADH (Figure 4)
  Respiratory rate of rAtAOX1A with vs without pyruvate: ~ 6 fold
[3]; 10 mM pyruvate, membrane-bound protein (Figure 4)
  Change of Km for O2 of rAtAOX1A: increased Km value for O2

## O=C(O)CCC(=O)O [succinate]
[3]
  Effect on oxygen consumption rate of rAtAOX1A (in words): dramatically promoted
